Data on three compounds can be found in US8349823B2, “Treatment of renal cell carcinoma” (priority 2008, dated 2013).

Data set [1] has as its system renal cancers not expressing the VHL gene. The settings on record: xenografted nude mice; cited from earlier work.
The subject of another data set is renal cancer xenografts. The following applies: xenografts in nude mice, in some cases; cited from earlier work.
In the next data set the test system is Fas ligand (FasL) mRNA. In words: Quantitative PCR of apoptosis mediators in renal cancer cells: Fas ligand. The data set is classed as cell-based, human. The following applies: SKRC-52, vs control cells without orellanine.
A further data set deals with PUMA mRNA. In words: Quantitative PCR of apoptosis mediators in renal cancer cells: PUMA. The settings on record: SKRC-52, vs control cells without orellanine. The data set is classed as cell-based, human.
Data set [2] concerns Tumor Necrosis Factor alpha (TNF) mRNA. Briefly: Quantitative PCR of apoptosis mediators in renal cancer cells: TNF. The data set is classed as cell-based, human. The settings on record: SKRC-52, vs control cells without orellanine.
Data set [3] is described as follows: Safety of i.v. orellanine during long term treatment with hemodialysis, pigs. The settings on record: 10 mg/kg initial, then 5 mg/kg after dialysis 3 times a week for 8 weeks. As for the experimental part: (§1) 5 pigs of the Göttingen minipig strain and 5 dogs of mixed breeding (body weight 10-15 kg) are set up for hemodialysis using equipment designed for children and infants. The animals receive initial doses of 10 mg orellanine/kg b.w. 24 h later, the animals are subjected to a dialysis session of approximately 3 h. After dialysis, the animals are injected with 5 mg orellanine/kg b.w. The dialysis/reinjection procedure is repeated 3 times a week (Monday, Wednesday, Friday) for 8 weeks. Once a week an assessment of the animals' general condition is made. At the end of the experiment all animals are terminated, and specimens for histopathological evaluation are taken from heart, lung, kidney, liver, spleen, small intestine, large intestine, brain, muscle and skin.

The test system of data set [4] is human renal cell carcinomas (786-0 and SKRC7). In words: Dose/response effect of orellanine on renal cell carcinoma cells. The data set is classed as cell-based. The following applies: single 24 h exposure. As for the experimental part: Cells harvested from 2 different human renal cell carcinomas (SKRC-7, 786-0), representing both mother tumors and metastatic growths, were cultured under standard conditions. When approximately 70% confluent and in rapid growth, the cells were exposed to medium containing different concentrations of Orellanine […] for 24 h.

Data set [5] deals with human clear cell cancer (SKRC52). In words: Morphological signs of apoptosis during incubation with orellanine. The data set is classed as cell-based. The settings on record: 4 h and 24 h incubation.
Another data set has as its system phosphorylated ERK 1/2. Briefly: Western blot of apoptosis pathways in renal cancer cells: ERK 1/2. The data set is classed as cell-based, human. The following applies: 100 μg/ml, up to 24 h; 786-0. As for the experimental part: (§2) For ERK 1/2 and p38, the ratios of phosphorylated (f) to total protein should be compared. Cleaved caspase 3 should be compared to the loading control, beta actin.
(§3) Renal cancer cells were cultured and exposed to orellanine according to Example 7 and harvested at various times up to 24 h. The p38 MAPK system, the p53 system, Fas Ligand, Tumor Necrosis Factor alpha (TNF) and cleaved caspase 3 are key factors in apoptotic pathways leading to cell death. Western blotting was used to determine intracellular levels of A) p38, B) cleaved caspase 3, and C) the proliferative factor phosphorylated ERK 1/2.
On the technique in general: Immunoblotting shows a protein as a band on a membrane.

The next data set concerns cdc2 protein. In words: Western blot of cell cycle proteins in renal cancer cells: cdc2. The following applies: 100 μg/ml, 24 h. The data set is classed as cell-based, human. As for the experimental part: (§4) FIG. 5: Effects of orellanine on the cell cycle in renal cell carcinoma (786-0 and SKRC-52) (Western Blot).
(§5) Renal cancer cells, cultured essentially as described in Example 3, were treated with orellanin (100 μg/ml culture medium) for 24 h. During this period cells were harvested after 0, 2, 6 and 24 h exposure. Western blots were performed on the harvested material with antibodies directed against A) the kinase inhibitor p21, B) phosphorylated retinoblastoma protein (a growth stimulating factor), and C) the cdc2 protein which allows the cell to proceed into the M-phase of the cell cycle where the cell divides.

The subject of data set [6] is human renal carcinoma cells (SKRC-52). In words: Intravenously inoculated human renal cell carcinoma in athymic rats. The data set is classed as in vivo. The settings on record: 10 mg/kg i.p. then 5 mg/kg i.v. at one and two weeks; terminated another week later. The source says:
(§6) Athymic, T cell-deficient rats (RNU, Charles River Laboratories, FRG) are used as a system for in vivo-growth of human renal cell carcinomas. The absence of a T cell-based immune defense in these animals makes them tolerant towards xenografts. One week after arrival in the animal facility 10 animals receive an X-irradiation dosis of 5 Gy in order to suppress also their B cell-mediated response.
(§7) The next day, all animals are equipped with an indwelling catheter for peritoneal dialysis (PD). PD treatment will replace the renal function that is lost as a side-effect upon administration of orellanine.
(§8) One day later, 5 animals are inoculated subcutaneously in the shoulder region with approximately 10×10^6 human renal carcinoma cells (SKRC-52). The 5 remaining animals receive the same amount of cells by intravenous injection. […] At this point 2 animals (controls) in each group are injected i.p. with physiological saline solution and the remaining 3 animals receive 10 mg orellanine/kg b.w. i.p.

For another data set, the system named is cortical renal tissue. The following applies: healthy rats; cited from earlier work.
The subject of data set [7] is phosphorylated retinoblastoma protein. Briefly: Western blot of cell cycle proteins in renal cancer cells: phosphorylated Rb. The settings on record: 100 μg/ml, 24 h measurement. The data set is classed as cell-based, human. As for the experimental part:
as §4, §5

The test system of data set [8] is phosphorylated (activated) p38. In words: Western blot of apoptosis pathways in renal cancer cells: p38. The data set is classed as cell-based, human. The settings on record: 100 μg/ml, 24-h observation period; 786-0. As for the experimental part:
as §2, §3

The subject of data set [9] is cell lines and primary cells from numerous human tissues (tubular epithelium, podocytes, mesangial cells, fibroblasts, macrophages, endothelium, intestinal …). Briefly: Effects of orellanine on other cell types, viability. The data set is classed as cell-based. The settings on record: 24 h exposure, concentrations up to 1,000 μg/ml (highest achievable), observed six more days.
Procedure: Cell lines and primary cells originated from numerous human tissues (tubular epithelium, podocytes and mesangial cells from renal tissue, fibroblasts, macrophages, aortic endothelium, microvascular endothelium and umbilical chord endothelium, intestinal epithelium (duodenal, jejunal, ileal and colonic) and chondrocytes) were cultured under standard conditions. When approximately 70% confluent and in stable growth, the cells were exposed for 24 h to medium containing orellanine in concentrations selected in order to achieve a dose response. […] To compensate for any growth retarding effects caused by dilution of the culture medium by the large volume of orellanine solution added, all cells were supplemented with equal volumes of orellanine buffer.

In data set [10] the test system is human renal cell carcinoma 786-0. In words: Repeated administration of a lower dose of orellanine, viability. The data set is classed as cell-based. The following applies: for number of viable cells: viability 96 h after first dose. As for the experimental part:
FIG. 4: Effect of repeated administration of a lower dose of orellanine. […] The first case is equivalent to a prolonged exposure of the cells (48 h), whereas the cells in the second case have been allowed to recover in orellanine-free medium for two days between the doses. Viability was measured 96 h after addition of the first orellanine dose.
Cells harvested from the human renal cell carcinoma 786-0 were cultured under standard conditions. When approximately 70% confluent and in rapid growth, the cells were exposed to medium containing a low concentration of Orellanine (20 μg/ml) for 24 h. Then the medium was changed to new medium either containing 20 μg/ml orellanine for 24 h (middle bar) or back to regular, complete medium for 48 h, followed by another 24 h in the presence of 20 μg/ml orellanine (rightmost bar).

Data set [11] has as its system human renal cell carcinomas (SKRC-52, 786-0, SKRC-17, SKRC-7 and SKRC-21). Briefly: Viability of human renal cell carcinoma cells for 7 days after 24 h exposure to orellanine. The data set is classed as cell-based. The following applies: 400 μM orellanine for 24 h, then orellanine-free medium, observed six more days.
Procedure: FIG. 1: Observation of the viability of cells from 5 different human renal cell carcinomas (primary tumors and metastases) during 7 days following 24 h of exposure to 400 μM orellanine (100 μg/ml culture medium. Viability is calculated by dividing the number of living cells in treated samples by the number of living cells in control samples (n=6). The gray area in the graph represents the period of orellanine incubation (24 h). The following days the cells were cultured in orellanine-free complete culture medium. The medium was changed at each viability measurement.
The pictures shown in FIGS. 2A and 2B were taken with the same magnification, and one week after incubation with orellanine/vehicle.
Cells harvested from 5 different human renal cell carcinomas (SKRC-52, 786-0, SKRC-17, SKRC-7 and SKRC-21), representing both mother tumors and metastatic growths, were cultured under standard conditions. When approximately 70% confluent and in rapid growth, the cells were exposed to medium containing Orellanine (400 μM) for 24 h.
The subject of a further data set is kinase inhibitor p21. In words: Western blot of cell cycle proteins in renal cancer cells: p21. The following applies: 100 μg/ml, harvested 0, 2, 6, 24 h; 786-0 and SKRC-52. The data set is classed as cell-based, human. As for the experimental part:
as §4, §5

The test system of data set [12] is human renal carcinoma cells (SKRC-52). In words: Subcutaneous human renal cell carcinoma in athymic rats. The data set is classed as in vivo.
Text: as §6, §7, §8

Another data set relates to cleaved caspase 3. In words: Western blot of apoptosis pathways in renal cancer cells: cleaved caspase 3. The data set is classed as cell-based, human. The following applies: 24 h after exposure; 786-0. As for the experimental part:
as §2, §3

The next data set deals with renal carcinoma. In words: Treatment of a human patient with advanced renal cell carcinoma. The data set is classed as in vivo. The following applies: 10 daily i.v. injections of 280 mg (4 mg/kg), hemodialysis after each, further series as needed.
Data set [13] can be described thus: Safety of i.v. orellanine during long term treatment with hemodialysis, dogs. The settings on record: 10 mg/kg initial, then 5 mg/kg after dialysis 3 times a week for 8 weeks. As for the experimental part:
as §1

Structures are written as SMILES.

Regarding `CO[C@@H]1[C@H](O)C[C@@H](O[C@@H]2C[C@H](Oc3cc4cc5c(c(O)c4c(O)c3C)C(=O)[C@@H](O[C@H]3C[C@@H](O[C@H]4C[C@@H](O[C@H]6C[C@](C)(O)[C@@H](OC(C)=O)[C@H](C)O6)[C@H](O)[C@@H](C)O4)[C@H](O)[C@@H](C)O3)[C@H]([C@H](OC)C(=O)[C@@H](O)[C@@H](C)O)C5)O[C@H](C)[C@@H]2OC(C)=O)O[C@@H]1C` [Chromomycin A3], the tumor growth result in [1] is “significantly retarded tumor growth”.

With `Cc1cc(N(CCOS(C)(=O)=O)CCOS(C)(=O)=O)ccc1C=O` [NSC-281612], the “effect on tumor mass” value in the data set on renal cancer xenografts is on record as “apparently complete eradication of the tumor mass”.

As to `[O-][n+]1ccc(O)c(O)c1-c1c(O)c(O)cc[n+]1[O-]` [Orellanine, 3,3′,4,4′-tetrahydroxy-2,2′-bipyridine-N,N′-dioxide], in the data set on Fas ligand (FasL) mRNA, the “FasL mRNA expression” value is listed as “extreme up-regulation”. Besides, the “PUMA mRNA expression” value with PUMA mRNA is reported as “extreme up-regulation”. Also, the “TNF mRNA expression” value in data set [2] is reported as “extreme up-regulation”. In addition, in data set [3], the “behavior and general condition” value is “remain normal”; the histopathological examination result is “no tissue damage with the exception of the kidneys where there is widespread tubular damage leading to complete renal failure”. Further, in [4], the “dose response interval (orellanine dose vs cell death)” value lay in the range of 5 to 200 µg/mL. For the same compound, the “typical signs of apoptosis, vacuolization and cell shrinkage” value in data set [5] is “evident already after 4 h incubation, and are further aggravated after 24 h”. In addition, in the data set on phosphorylated ERK 1/2, the “phosphorylated ERK 1/2” value is on record as “up-regulation”. In the data set with cdc2 protein, the cdc2 protein level result is “dramatically down-regulated”. In addition, the “tumor burden relative to control animals” value in data set [6] is “less than 10%”. In the data set on cortical renal tissue, the “expression of several key antioxidant genes” value is listed as “dramatically decreased expression” and the “oxidative stress in cortical renal tissue” value was “increased oxidative stress”. Further, the “phosphorylated forms of the retinoblastoma protein” value in data set [7] was “completely lacking”. The “phosphorylated (activated) p38” value in data set [8] is on record as “steady increase”. Also, the effects on viability result in data set [9] is on record as “None of the tested cell types exhibited any effects on viability”. In addition, the “toxic effects of repeated exposure” value in data set [10] (repeated exposure at lower limit of the single exposure response interval (20 μg/ml)) is “further, marked toxic effects”. Also, the “number of viable cells” value in data set [10] (second dose 20 μg/ml 24 h after the first dose) was “strong decrease in the number of viable cells”. The “number of viable cells” value in data set [10] (second dose 20 μg/ml at 72 h) is “considerably smaller, but still significant, effect”. Besides, the “toxicity to the tested cell types (viability)” value in data set [11] was “highly toxic to all the tested cell types”. For the same compound, the “intracellular levels of p21” value in the data set with kinase inhibitor p21 is “increased with a maximum around 6 h”. In addition, the “signs of the tumors” value in [12] (10 mg/kg i.p. then 5 mg/kg into the tumor site, another 2 weeks later) is on record as “no signs of the tumors are evident”. Also, in data set [12] (10 mg/kg i.p., two weeks after first injection), the “tumor size relative to the size recorded at the time of injection” value was “less than 25%”. For the same compound, in data set [12] (former control animals, 10 mg/kg into the tumor site, after 2 weeks), the “reduction of tumor size” value was “more than 75%”. For the same compound, in the data set on cleaved caspase 3, the “amount of cleaved caspase-3” value is “dramatically increased”. Further, the “renal cancer at the conclusion of the treatment” value in the data set on renal carcinoma is “completely eradicated”. Moreover, in data set [13], the “behavior and general condition” value is reported as “remain normal”; the histopathological examination entry is recorded as “no tissue damage with the exception of the kidneys where there is widespread tubular damage leading to complete renal failure”.
